In one assay the target is T1, Mcm467 (Saccharomyces cerevisiae, UniProt P30665+P38132+P53091).
T1 construct: made in house; host or cells: baculovirus-infected insect cells
Description: ssDNA double filter-binding assay, Mcm467. The following applies: 1 mM compound, 150 nM helicase.

The test system of a further assay is pUC19. The assay is described as follows: DNA intercalation assay (Topo I-relaxed plasmid). It is filed as biochemical. The following applies: 1 mM inhibitor added after plasmid relaxation (Figure 3C). An excerpt:
To examine this model, we tested our inhibitors in a standard topoisomerase assay. The rationale of this assay is that intercalating compounds will introduce supercoils into a fully relaxed plasmid. Topo I will remove these introduced supercoils, but after quenching and gel electrophoresis the intercalator will diffuse away and produce a detectable compensatory supercoiling increase.

T1 sequence (P30665 whole entry): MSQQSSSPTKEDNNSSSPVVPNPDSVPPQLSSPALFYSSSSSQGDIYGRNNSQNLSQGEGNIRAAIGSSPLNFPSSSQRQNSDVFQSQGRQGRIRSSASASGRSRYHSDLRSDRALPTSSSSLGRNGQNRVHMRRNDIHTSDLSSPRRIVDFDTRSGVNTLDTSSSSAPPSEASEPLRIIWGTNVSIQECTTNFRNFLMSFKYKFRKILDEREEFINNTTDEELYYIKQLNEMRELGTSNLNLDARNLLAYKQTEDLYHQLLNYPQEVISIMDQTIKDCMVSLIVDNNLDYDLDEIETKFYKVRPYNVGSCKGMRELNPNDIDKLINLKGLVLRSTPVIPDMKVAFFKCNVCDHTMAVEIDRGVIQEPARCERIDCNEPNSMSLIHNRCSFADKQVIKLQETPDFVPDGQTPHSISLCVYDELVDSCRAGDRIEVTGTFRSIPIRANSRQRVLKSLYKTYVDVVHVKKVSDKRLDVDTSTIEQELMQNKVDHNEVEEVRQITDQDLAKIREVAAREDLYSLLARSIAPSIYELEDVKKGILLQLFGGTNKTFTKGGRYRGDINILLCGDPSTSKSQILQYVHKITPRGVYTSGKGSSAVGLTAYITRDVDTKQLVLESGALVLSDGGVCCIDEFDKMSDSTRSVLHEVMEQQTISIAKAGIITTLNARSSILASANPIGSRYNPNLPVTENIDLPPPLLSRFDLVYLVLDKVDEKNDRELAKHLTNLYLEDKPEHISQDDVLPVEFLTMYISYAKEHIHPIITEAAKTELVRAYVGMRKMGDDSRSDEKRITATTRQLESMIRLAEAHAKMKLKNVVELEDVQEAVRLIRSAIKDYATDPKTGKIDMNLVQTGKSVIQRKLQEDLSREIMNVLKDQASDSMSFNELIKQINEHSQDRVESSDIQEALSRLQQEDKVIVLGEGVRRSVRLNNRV
T1 sequence (P53091 whole entry): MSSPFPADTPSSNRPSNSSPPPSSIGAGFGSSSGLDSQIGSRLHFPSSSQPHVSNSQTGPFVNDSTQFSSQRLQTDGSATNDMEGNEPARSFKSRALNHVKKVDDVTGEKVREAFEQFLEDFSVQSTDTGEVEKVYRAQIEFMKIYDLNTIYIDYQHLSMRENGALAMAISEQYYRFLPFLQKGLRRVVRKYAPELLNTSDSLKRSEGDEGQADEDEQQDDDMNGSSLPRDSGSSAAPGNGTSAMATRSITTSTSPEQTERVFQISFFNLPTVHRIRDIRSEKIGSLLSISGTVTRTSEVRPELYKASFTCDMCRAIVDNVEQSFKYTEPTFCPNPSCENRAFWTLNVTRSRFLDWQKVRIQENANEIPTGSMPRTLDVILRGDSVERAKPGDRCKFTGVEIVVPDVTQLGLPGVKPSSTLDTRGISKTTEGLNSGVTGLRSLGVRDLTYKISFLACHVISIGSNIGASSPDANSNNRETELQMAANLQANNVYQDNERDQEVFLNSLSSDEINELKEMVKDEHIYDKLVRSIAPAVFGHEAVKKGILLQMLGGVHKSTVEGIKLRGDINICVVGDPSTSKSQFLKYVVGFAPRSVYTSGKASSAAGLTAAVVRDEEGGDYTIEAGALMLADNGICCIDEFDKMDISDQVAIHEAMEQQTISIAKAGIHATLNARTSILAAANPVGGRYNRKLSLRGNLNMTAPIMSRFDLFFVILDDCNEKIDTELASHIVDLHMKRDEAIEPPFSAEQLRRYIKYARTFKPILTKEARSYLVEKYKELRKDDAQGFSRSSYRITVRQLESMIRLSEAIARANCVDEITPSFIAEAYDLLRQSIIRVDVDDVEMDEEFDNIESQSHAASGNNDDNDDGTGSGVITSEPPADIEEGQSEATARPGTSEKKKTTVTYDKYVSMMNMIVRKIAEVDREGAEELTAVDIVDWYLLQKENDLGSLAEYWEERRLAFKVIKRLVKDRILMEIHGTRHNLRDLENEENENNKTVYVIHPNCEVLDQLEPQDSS
T1 sequence (P38132 whole entry): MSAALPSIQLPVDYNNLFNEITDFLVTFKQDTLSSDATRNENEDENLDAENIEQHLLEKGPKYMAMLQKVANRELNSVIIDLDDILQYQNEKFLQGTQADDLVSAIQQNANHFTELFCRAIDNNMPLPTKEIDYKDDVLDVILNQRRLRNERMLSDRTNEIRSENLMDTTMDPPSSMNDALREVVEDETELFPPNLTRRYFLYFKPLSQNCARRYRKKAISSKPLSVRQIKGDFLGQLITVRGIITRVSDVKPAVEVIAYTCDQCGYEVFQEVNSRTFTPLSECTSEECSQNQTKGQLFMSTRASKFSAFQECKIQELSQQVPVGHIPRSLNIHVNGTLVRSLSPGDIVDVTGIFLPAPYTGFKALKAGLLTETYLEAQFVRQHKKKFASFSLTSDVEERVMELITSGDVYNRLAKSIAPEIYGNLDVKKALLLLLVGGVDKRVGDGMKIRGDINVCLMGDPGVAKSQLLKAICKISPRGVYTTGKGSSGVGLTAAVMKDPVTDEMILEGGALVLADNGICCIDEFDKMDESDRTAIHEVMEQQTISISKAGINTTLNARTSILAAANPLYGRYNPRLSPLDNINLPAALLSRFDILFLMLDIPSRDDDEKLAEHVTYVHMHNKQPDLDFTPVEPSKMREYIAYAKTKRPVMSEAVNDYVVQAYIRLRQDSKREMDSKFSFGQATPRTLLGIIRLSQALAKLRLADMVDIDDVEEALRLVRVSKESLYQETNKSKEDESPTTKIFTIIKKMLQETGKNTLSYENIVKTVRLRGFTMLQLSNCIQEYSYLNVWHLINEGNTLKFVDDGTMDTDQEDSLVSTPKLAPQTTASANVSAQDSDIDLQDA

Consider `O=C(O)c1cn(C2CC2)c2cc(N3CCNCC3)c(F)cc2c1=O` [Ciprofloxacin, ciprofloxacin, reference compound], for which the “effect on ssDNA binding of Mcm467” value at Mcm467 was “only modest effects”. The DNA intercalation result with pUC19 was “little or no intercalation”.

Values taken from article PMC3791872 (Bioscience Reports, 2013).
